Experimental data taken from PMC4618636 (Pharmacology Research & Perspectives, 2015).
Values joined by “and” are separate entries in the source; they are usually repeats but may differ in a detail not shown here. Equal values may be shown once. Read-outs that look alike come from different tables or passages of the source.

Columns and labels:
[1] = test system: CYP3A4; details: for CYP3A4 RIS: mean of two experiments; for CYP3A4 % Rif: relative to positive control rifampicin, equation 2
[2] = test system: CYP2B6; details: for CYP2B6 Indmax: mean from two experiments; for CYP2B6 % PB: relative to positive control phenobarbital, equation 2
[3] = test system: CYP3A4; details: in vivo induction value used for the RIS calibration; cited from earlier work

Cc1c(C)c2c(c(C)c1O)CCC(C)(COc1ccc(CC3SC(=O)NC3=O)cc1)O2 (stereo not shown) [Troglitazone, troglitazone]
CYP3A4 Indmax ([1]; upcyte Donor 10-03, mean from two experiments): 4.7 fold | CYP3A4 RIS ([1]; upcyte Donor 10-03): 0.083 | CYP3A4 % Rif ([1]; upcyte Donor 10-03): 12% | CYP3A4 Indmax ([1]; upcyte Donor 10-03, values of two experiments): 5.0 fold and 4.4 fold | CYP3A4 Indmax ([1]; upcyte Donor 151-03, mean from two experiments): 1.8 fold | CYP3A4 RIS ([1]; upcyte Donor 151-03): 0.094 | CYP3A4 % Rif ([1]; upcyte Donor 151-03): 13% | CYP3A4 Indmax ([1]; upcyte Donor 151-03, values of two experiments): 2.3 fold and 1.3 fold | CYP3A4 Indmax ([1]; upcyte Donor 422A-03, mean from two experiments): 2.7 fold | CYP3A4 RIS ([1]; upcyte Donor 422A-03): 1.030 | CYP3A4 % Rif ([1]; upcyte Donor 422A-03): 15% | CYP3A4 Indmax ([1]; upcyte Donor 422A-03, values of two experiments): 2.6 fold and 2.7 fold | CYP3A4 Ind50 ([1]; upcyte Donor 653-03, column headed Ind50 in Table 5): 14 | CYP3A4 Indmax ([1]; upcyte Donor 653-03, mean from two experiments): 2.2 fold | CYP3A4 RIS ([1]; upcyte Donor 653-03): 0.466 | CYP3A4 Indmax ([1]; upcyte Donor 653-03, values of two experiments): 1.8 fold and 2.6 fold | CYP2B6 Indmax ([2]; upcyte Donor 10-03): 5.4 fold | CYP2B6 % PB ([2]; upcyte Donor 10-03): 150% | CYP2B6 Indmax ([2]; upcyte Donor 151-03): 2.1 fold | CYP2B6 % PB ([2]; upcyte Donor 151-03): 57% | CYP2B6 Indmax ([2]; upcyte Donor 422A-03): 5.0 fold | CYP2B6 % PB ([2]; upcyte Donor 422A-03): 63% | CYP2B6 Indmax ([2]; upcyte Donor 653-03): 2.3 fold | CYP2B6 % PB ([2]; upcyte Donor 653-03): 63% | % Decrease in midazolam AUC [3]: 67%
